The values below come from publication PMC12295306, “Gut Microbial Postbiotics as Potential Therapeutics for Lymphoma: Proteomics Insights of the Synergistic Effects of Nisin and Urolithin B Against Human Lymphoma Cells” (International Journal of Molecular Sciences, 2025).

Assay [1] has as its system HKB-11 human lymphoma cells. As to the kind of experiment: Alamar Blue antiproliferative assay, HKB-11. Format: cell-based. The following applies: HKB-11, 72 h, single postbiotics, GraphPad Prism nonlinear regression; for IC50: read-out: IC50 (concentration required to inhibit 50% of cell growth). On the procedure:
The cell viability of the HKB-11, Hs 313.T, and HS-5 cells after treatment with different concentrations of the seven different postbiotics, including SCFA salts (magnesium acetate, sodium propionate, and sodium butyrate), UA and UB, purine nucleoside (inosine), and bacteriocin (N), was determined using the Alamar Blue assay as per the method described earlier. Briefly, 100 μL of cells was cultured in 96-well plates at a 3 × 10^5 cells/mL seeding density. After 24 h, the cells were treated with 16,000 µM of each postbiotic except for the urolithins, which were applied at 500 µM using a 1:2 serial dilution across a 10-point dose–response curve, followed by a 72 h incubation. A positive control using doxorubicin was prepared at a concentration of 4 μM, and an untreated control with 0.1% DMSO was added to every plate. At the end of the incubation period, the culture media were removed, and 100 μL of a 0.1 mg/mL Alamar Blue solution (resazurin, prepared as a stock solution at 1 mg/mL in freshly made PBS, followed by a 1:10 dilution with serum-free media) was added to each well. The fluorescence levels were assessed using a microplate spectrophotometer (BMG CLARIOstar, Mornington, VIC, Australia) with an excitation wavelength of 555 nm and emission measurement at 595 nm. The compounds were tested in triplicate, with the untreated control taken as 100% cell viability.
Data were collected and managed using MS Office Excel and GraphPad Prism for statistical analyses and visualisation. Data collection and analyses were carried out in triplicate, and the outcomes were presented as the mean ± standard deviation. Statistical significance between the mean values was determined at p ≤ 0.05 employing a two-way ANOVA. Tukey and Dunnett’s tests were utilised within GraphPad Prism software to perform nonlinear regression and multiple comparisons. Furthermore, GraphPad Prism software computed the IC50 value (representing the drug concentration required to achieve a 50% cell growth inhibition). The experimental groups in the proteomics study were compared statistically using unpaired t-tests, assuming equal variances. Candidate proteins were selected based on an absolute log2 fold change ≥ 0.58 and a Q-value ≤ 0.05. Enrichment analysis was subsequently conducted using Ingenuity Pathway Analysis (IPA), applying a significance threshold of adjusted Q ≤ 0.05 to identify functionally enriched pathways, focusing on those with an absolute z-score of ≥1.
On the technique in general: Resazurin is reduced to fluorescent resorufin, in cell work by metabolically active cells.

In assay [2] the test system is HKB-11 lymphoma cells. As to the kind of experiment: ROS production, H2DCFDA assay. Type of assay: cell-based, human. The following applies: 4 h. The procedure:
Briefly, HKB-11 lymphoma cells (2.5 × 10^5 cells/mL) were cultured in a 96-well plate, allowed to adhere overnight, and treated with 20 μM H2DCFDA for 45 min to assess ROS levels. The dye solution was removed, and cells were washed with 1× buffer. Next, the cells were treated with N (8000 μM), N (4000 μM), UB (500 μM), UB (250 μM), N/UB (3500 μM), N/UB (1750 μM), N/UB (5750 μM), N/UB (2875 μM), Dox (4 μM), and tert-butyl hydroperoxide (TBHP) (150 μM) and then incubated at 37 °C for 4 h. Finally, the plate was immediately read at Ex/Em = 485/535 nm using a microplate spectrophotometer (BMG CLARIOstar, VIC, Australia). The fold change in ROS production was determined relative to the untreated control (cells treated with the supplement buffer according to the manufacturer’s protocol).

Assay [3] concerns HKB-11 lymphoma cells. Briefly: Flow cytometry apoptosis profile, Annexin V-CF Blue / 7-AAD. The following applies: HKB-11, 4 µM, 24 h; p ≤ 0.0001. Type of assay: cell-based, human. The procedure:
The HKB-11 cells were cultured in T75 cell culture flasks with an initial density of 1 × 10^6 cells per 10 mL at 37 °C in the presence of 5% CO2 for 24 h. The following day, the cell culture media was removed from each flask and replaced with fresh FBS-containing media. […] An FBS-containing medium was used as the untreated control. The flasks were then incubated at 37 °C with 5% CO2 for 24 h. Then, the cell culture media from each flask were collected. Subsequently, trypsin (0.25% w/v) was applied to the flasks for 4 min at 37 °C. The trypsin reaction was neutralised with an equal volume of 10% FBS serum-containing media, and the cells were combined with the previously collected media. The cell pellets were obtained by centrifuging at 500× g for 5 min at room temperature (RT). This procedure was repeated by suspending the cell pellets in 1 mL of PBS each time. The collected cell pellets from each treatment were immediately suspended in 500 μL of 1× binding buffer and gently mixed by pipetting. Annexin V-CF Blue (5 μL) and 7-AAD (5 μL) staining solutions were added to 100 μL of the cell suspension. The stained cells were incubated for 15 min in the dark at RT, after which 400 μL of a 1× assay buffer was added to each cell suspension. Subsequently, the cells were examined using a flow cytometer (Novocyte 3000, ACEA Biosciences Inc., San Diego, CA, USA), and data analysis and processing were performed using NovoExpress software (version 1.5.0, ACEA Biosciences Inc., CA, USA). In the initial step, the cells were gated on forward and side scatter modes to exclude cell aggregates and debris near the origin. The cells were then gated on dot plots, where Annexin V-CF in Pacific Blue was plotted against 7-AAD fluorescence in PerCP. Quadrants were positioned relative to the untreated control, indicating live cells ([…] and −7-AAD) appearing in the lower-left quadrant, early apoptotic cells (+Annexin V and −7-AAD) in the lower-right quadrant, late apoptotic cells (+Annexin V and +7-AAD) in the upper-right quadrant, and necrotic cells (−Annexin V and +7-AAD) in the upper-left quadrant. For statistical analyses and visualisation, the percentage data of cells in each quadrant after different treatments (n = 3) were exported to GraphPad Prism software (version 9.0, San Diego, CA, USA).
On the technique in general: A flow cytometer gives signals particle by particle.

On to `CC(=O)[O-].CC(=O)[O-].[Mg+2]` [Magnesium Acetate, magnesium acetate], for which the “IC50 (concentration required to inhibit 50% of cell growth)” value in assay [1] is “could not be calculated”.
On to `CCCC(=O)[O-].[Na+]` [Sodium Butyrate, sodium butyrate], for which the IC50 in assay [1] amounted to 2020 µM.
For `CC(C)(C)OO` [TBHP, tert-butyl hydroperoxide, reference compound], in assay [2] (HKB-11, 150 μM), the “ROS production (positive control)” value is given as “induced high ROS production”.
Turning to `O=c1[nH]cnc2c1ncn2[C@@H]1O[C@H](CO)[C@@H](O)[C@H]1O` [Inosine, inosine], in assay [1], the “IC50 (concentration required to inhibit 50% of cell growth)” value is “could not be calculated”.
For the molecule `CCC(=O)[O-].[Na+]` [Sodium Propionate, sodium propionate], in assay [1], the IC50 was 14600 µM.
Regarding `COc1cccc2c1C(=O)c1c(O)c3c(c(O)c1C2=O)C[C@@](O)(C(=O)CO)C[C@@H]3O[C@H]1C[C@H](N)[C@H](O)[C@H](C)O1` [Dox, doxorubicin, reference compound], in assay [3], the “Apoptosis induction (positive control)” value was “significantly induced apoptosis”; the “Necrotic cell death compared to the untreated control and other treatment groups” value is “markedly higher proportion of necrotic cell death”. The “ROS production (positive control)” value in assay [2] (HKB-11, 4 μM) is reported as “induced high ROS production”.
In the case of `O=c1oc2cc(O)ccc2c2ccc(O)cc12` [UA, Urolithin A], the IC50 in assay [1] is 384 µM.
